In brackets after ≈: the same amount, converted by molar mass.

The text below walks through data of patent US4971965A, “Antibiotics TAN-1057” (Takeda Chemical Industries, Ltd., priority 1988, dated 1990).

The subject of data set [1] is Acinetobacter calcoaceticus IFO 12552. It counts as cell-based. The note with it: IFO12552, agar dilution, DY medium, pH unadjusted, approx. 10^6 CFU/ml, read-out: Minimum Inhibitory Conc. (MIC). As for the experimental part:
(§1) (Note 1) Measurement was conducted by employing a medium consisting of DY
(§2) medium [Bacto Antibiotic Medium 3 (Difco Laboratories, USA)(17.5 g), Bact
(§3) yeast extract(Difco Laboratories, USA)(5.0 g) and distilled water(pH
(§4) unadjusted)(1000 ml)], using approximately 10^6 colony forming unit/m
(§5) of inoculum, by means of the agar dilution method.
(In agar dilution the substance is mixed into plates at graded concentrations.)

The test system of another data set is Aeromonas caviae NCW. The format is cell-based. The note with it: agar dilution, DY medium, pH unadjusted, approx. 10^6 CFU/ml, read-out: Minimum Inhibitory Conc. (MIC). As for the experimental part:
as §1, §2, §3, §4, §5

In the next data set the test system is Bacillus cereus FDA 5. It counts as cell-based. Particulars: FDA5, agar dilution, DY medium, pH unadjusted, approx. 10^6 CFU/ml, read-out: Minimum Inhibitory Conc. (MIC). As for the experimental part: as §1, §2, §3, §4, §5
Data set [2] deals with Bacillus megaterium IFO 12108. It counts as cell-based. The note with it: Priestia megaterium, IFO12108; agar dilution; DY medium, pH unadjusted; approx. 10^6 CFU/ml; read-out: Minimum Inhibitory Conc. (MIC). On the procedure:
as §1, §2, §3, §4, §5

The test system of data set [3] is Bacillus subtilis NIHJ PCI 219. The format is cell-based. Particulars: agar dilution, DY medium, pH unadjusted, approx. 10^6 CFU/ml, read-out: Minimum Inhibitory Conc. (MIC). On the procedure: as §1, §2, §3, §4, §5
A further data set has as its system Escherichia coli LD-2. The format is cell-based. Particulars: LD2, agar dilution, DY medium, pH unadjusted, approx. 10^6 CFU/ml, read-out: Minimum Inhibitory Conc. (MIC). As for the experimental part:
as §1, §2, §3, §4, §5

Data set [4] has as its system Escherichia coli NIHJ JC 2. It counts as cell-based. The note with it: NIHJJC2, agar dilution, DY medium, pH unadjusted, approx. 10^6 CFU/ml, read-out: Minimum Inhibitory Conc. (MIC). On the procedure: as §1, §2, §3, §4, §5
The test system of data set [5] is Klebsiella pnemoniae IFO 3317. The format is cell-based. The note with it: IFO3317, agar dilution, DY medium, pH unadjusted, approx. 10^6 CFU/ml, read-out: Minimum Inhibitory Conc. (MIC). On the procedure:
as §1, §2, §3, §4, §5

The subject of data set [6] is Micrococcus luteus IFO 12708. The format is cell-based. Particulars: IFO12708, agar dilution, DY medium, pH unadjusted, approx. 10^6 CFU/ml, read-out: Minimum Inhibitory Conc. (MIC). As for the experimental part: as §1, §2, §3, §4, §5
In data set [7] the test system is Proteus vulgaris IFO 3988. It counts as cell-based. The note with it: IFO3988, agar dilution, DY medium, pH unadjusted, approx. 10^6 CFU/ml, read-out: Minimum Inhibitory Conc. (MIC). As for the experimental part:
as §1, §2, §3, §4, §5

The test system of data set [8] is Pseudomonas aeruginosa IFO 3080. It counts as cell-based. Particulars: IFO3080, agar dilution, DY medium, pH unadjusted, approx. 10^6 CFU/ml, read-out: Minimum Inhibitory Conc. (MIC). As for the experimental part:
as §1, §2, §3, §4, §5

Data set [9] deals with Salmonella typhimurium IFO 12529. It counts as cell-based. The note with it: Salmonella enterica; agar dilution; DY medium, pH unadjusted; approx. 10^6 CFU/ml; read-out: Minimum Inhibitory Conc. (MIC). On the procedure:
as §1, §2, §3, §4, §5

Data set [10] deals with Staphylococcus aureus FDA 209P. It counts as cell-based. The note with it: FDA209P, agar dilution, DY medium, pH unadjusted, approx. 10^6 CFU/ml, read-out: Minimum Inhibitory Conc. (MIC). On the procedure:
as §1, §2, §3, §4, §5

For data set [11], the system named is Staphylococcus epidermidis IFO 3762. It counts as cell-based. Particulars: IFO3762, agar dilution, DY medium, pH unadjusted, approx. 10^6 CFU/ml, read-out: Minimum Inhibitory Conc. (MIC). As for the experimental part: as §1, §2, §3, §4, §5
Data set [12] deals with Streptococcus faecalis IFO 3989. The format is cell-based. Particulars: Enterococcus faecalis, IFO3989; agar dilution; DY medium, pH unadjusted; approx. 10^6 CFU/ml; read-out: Minimum Inhibitory Conc. (MIC). On the procedure:
as §1, §2, §3, §4, §5

Data set [13] in a line: Conversion in aqueous solution. It counts as physicochemical. The note with it: especially aqueous alkaline solution, by HPLC. The source says: For example, in case that the mixture of TAN-1057A and B is isolated as crystals of the sulfate, the ratio of TAN-1057A and B is about 6 to 8:4 to 2.
The term "Antibiotics TAN-1057" in the present specification includes also a mixture which contains TAN-1057A, B, C and D in an optional combination and an optional ratio thereof.

Regarding `CN1C(=O)C[C@H](CCCNC(=N)N)NC(=O)[C@H]1CNC(=N)NC(N)=O` [TAN-1057C], the MIC was above 100 mg/L in data set [1]; 50 mg/L (≈ 141 µM) in the data set with Aeromonas caviae NCW; above 100 mg/L with Bacillus cereus FDA 5; above 100 mg/L in [2]; above 100 mg/L in data set [3]; 50 mg/L (≈ 141 µM) with Escherichia coli LD-2. Moreover, the minimal inhibitory concentration (MIC) in [4] was above 100 mg/L; in data set [5], above 100 mg/L; in data set [6], 12.5 mg/L (≈ 35.2 µM); in data set [7], above 100 mg/L; in [8] it was above 100 mg/L; in [9] it was above 100 mg/L. Besides, the MIC in data set [10] was found to be 50 mg/L (≈ 141 µM); in data set [11], 6.25 mg/L (≈ 17.6 µM); in data set [12] it was 50 mg/L (≈ 141 µM). The “conversion of TAN-1057C and D” value in data set [13] is “converted into TAN-1057B”.

The term MIC denotes the smallest concentration in the dilution series that meets the test's criterion for growth inhibition.
